Target: T1, human MGL from HeLa cells (Homo sapiens, UniProt Q99685)
T1 construct: combining endogenously expressed MGL from HeLa cells with test compounds; endogenous in cells; host or cells: HeLa cells / cell homogenates
T1 sequence (Q99685 1-303): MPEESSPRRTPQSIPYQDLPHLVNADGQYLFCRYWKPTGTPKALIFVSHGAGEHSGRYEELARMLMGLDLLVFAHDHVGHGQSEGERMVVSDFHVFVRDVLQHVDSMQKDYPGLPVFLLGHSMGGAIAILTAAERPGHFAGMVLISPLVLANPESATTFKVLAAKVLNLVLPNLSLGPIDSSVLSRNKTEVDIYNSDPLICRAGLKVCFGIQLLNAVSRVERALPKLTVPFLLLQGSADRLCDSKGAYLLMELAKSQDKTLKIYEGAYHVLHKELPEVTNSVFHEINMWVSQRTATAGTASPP
Assay: In vitro MGL activity assay: [glycerol-1,3-3H]-oleyl glycerol cleavage by MGL from HeLa cells
Format: biochemical
Conditions: 300 nM [Glycerol-1,3-3H]-oleyl glycerol, one hour incubation
Text: MGL is the predominant hydrolase in HeLa cells/cell homogenates.

Structure (SMILES)	IC50 [nM]
C[C@H]1c2nn(C)c(-c3cc(F)c(F)c(F)c3)c2CCN1C(=O)c1nccc2c1ccn2C [Example 217, (S)-(2,7-Dimethyl-3-(3,4,5-trifluorophenyl)-2,4,5,7-tetrahydro-6H-pyrazolo[3,4-c]pyridin-6-yl)(1-methyl-1H-pyrrolo[3,2-c]pyridin-4-yl)methanone]	5.07
C[C@H]1c2nn(C)c(-c3cc(F)c(F)c(F)c3)c2CCN1C(=O)c1c[nH]c2ccncc12 [Example 218, (S)-(2,7-Dimethyl-3-(3,4,5-trifluorophenyl)-2,4,5,7-tetrahydro-6H-pyrazolo[3,4-c]pyridin-6-yl)(1H-pyrrolo[3,2-c]pyridin-3-yl)methanone]	35.2
C[C@H]1c2nn(C)c(-c3cc(F)c(F)c(F)c3)c2CCN1C(=O)c1cn(C)c2cccnc12 [Example 220, (S)-(2,7-Dimethyl-3-(3,4,5-trifluorophenyl)-2,4,5,7-tetrahydro-6H-pyrazolo[3,4-c]pyridin-6-yl)(1-methyl-1H-pyrrolo[3,2-b]pyridin-3-yl)methanone]	130
C[C@H]1c2nn(C)c(-c3cc(F)c(F)c(F)c3)c2CCN1C(=O)c1cncc2c1ccn2C [Example 224, (S)-(2,7-Dimethyl-3-(3,4,5-trifluorophenyl)-2,4,5,7-tetrahydro-6H-pyrazolo[3,4-c]pyridin-6-yl)(1-methyl-1H-pyrrolo[2,3-c]pyridin-4-yl)methanone]	2.55
C[C@H]1c2nn(C)c(-c3cc(F)c(F)c(F)c3)c2CCN1C(=O)c1cnc2c(ccn2C)c1 [Example 226, (S)-(2,7-Dimethyl-3-(3,4,5-trifluorophenyl)-2,4,5,7-tetrahydro-6H-pyrazolo[3,4-c]pyridin-6-yl)(1-methyl-1H-pyrrolo[2,3-b]pyridin-5-yl)methanone]	16.2
C[C@H]1c2nn(C)c(-c3cc(F)c(F)c(F)c3)c2CCN1C(=O)c1ccn2nccc2c1 [Example 228, (S)-(2,7-Dimethyl-3-(3,4,5-trifluorophenyl)-2,4,5,7-tetrahydro-6H-pyrazolo[3,4-c]pyridin-6-yl)(pyrazolo[1,5-a]pyridin-5-yl)methanone]	48.1
C[C@H]1c2nn(C)c(-c3cc(F)c(F)c(F)c3)c2CCN1C(=O)c1cnn2ccncc12 [Example 229, (S)-(2,7-Dimethyl-3-(3,4,5-trifluorophenyl)-2,4,5,7-tetrahydro-6H-pyrazolo[3,4-c]pyridin-6-yl)(pyrazolo[1,5-a]pyrazin-3-yl)methanone]	40.7
C[C@H]1c2nn(C)c(-c3cc(F)c(F)c(F)c3)c2CCN1C(=O)c1nn(C)c2ncccc12 [Example 230, (S)-(2,7-Dimethyl-3-(3,4,5-trifluorophenyl)-2,4,5,7-tetrahydro-6H-pyrazolo[3,4-c]pyridin-6-yl)(1-methyl-1H-pyrazolo[3,4-b]pyridin-3-yl)methanone]	23
C[C@H]1c2nn(C)c(-c3cc(F)c(F)c(F)c3)c2CCN1C(=O)c1cnc2c(cnn2C)c1 [Example 231, (S)-(2,7-Dimethyl-3-(3,4,5-trifluorophenyl)-2,4,5,7-tetrahydro-6H-pyrazolo[3,4-c]pyridin-6-yl)(1-methyl-1H-pyrazolo[3,4-b]pyridin-5-yl)methanone]	124
C[C@H]1c2nn(C)c(-c3cc(F)c(F)c(F)c3)c2CCN1C(=O)c1ccc2ncccc2c1 [Example 234, (S)-(2,7-Dimethyl-3-(3,4,5-trifluorophenyl)-2,4,5,7-tetrahydro-6H-pyrazolo[3,4-c]pyridin-6-yl)(quinolin-6-yl)methanone]	4.71
C[C@@H]1c2nn(C)c(-c3cc(F)c(F)c(F)c3)c2CCN1C(=O)c1ccc2ncccc2c1 [Example 235, (R)-(2,7-Dimethyl-3-(3,4,5-trifluorophenyl)-2,4,5,7-tetrahydro-6H-pyrazolo[3,4-c]pyridin-6-yl)(quinolin-6-yl)methanone]	3660
COc1cc(C(=O)N2CCc3c(nn(C)c3-c3cc(F)c(F)c(F)c3)[C@@H]2C)c2ccccc2n1 [Example 240, (S)-(2,7-Dimethyl-3-(3,4,5-trifluorophenyl)-2,4,5,7-tetrahydro-6H-pyrazolo[3,4-c]pyridin-6-yl)(2-methoxyquinolin-4-yl)methanone]	0.69
Cc1cc(C(=O)N2CCc3c(nn(C)c3-c3cc(F)c(F)c(F)c3)[C@@H]2C)c2cccc(F)c2n1 [Example 241, (S)-(2,7-Dimethyl-3-(3,4,5-trifluorophenyl)-2,4,5,7-tetrahydro-6H-pyrazolo[3,4-c]pyridin-6-yl)(8-fluoro-2-methylquinolin-4-yl)methanone]	6.56
C[C@H]1c2nn(C)c(-c3cc(F)c(F)c(F)c3)c2CCN1C(=O)c1ccc2nccnc2c1 [Example 242, (S)-(2,7-Dimethyl-3-(3,4,5-trifluorophenyl)-2,4,5,7-tetrahydro-6H-pyrazolo[3,4-c]pyridin-6-yl)(quinoxalin-6-yl)methanone]	22.3
Cc1cnc2cc(C(=O)N3CCc4c(nn(C)c4-c4cc(F)c(F)c(F)c4)[C@@H]3C)ccc2n1 [Example 243, (S)-(2,7-Dimethyl-3-(3,4,5-trifluorophenyl)-2,4,5,7-tetrahydro-6H-pyrazolo[3,4-c]pyridin-6-yl)(2-methylquinoxalin-6-yl)methanone]	25

The next lines start with the values.

IC50 [nM]	Structure (SMILES)
28.6	C[C@H]1c2nn(C)c(-c3cc(F)c(F)c(F)c3)c2CCN1C(=O)c1cn(C)c2ccncc12 [Example 219, (S)-(2,7-Dimethyl-3-(3,4,5-trifluorophenyl)-2,4,5,7-tetrahydro-6H-pyrazolo[3,4-c]pyridin-6-yl)(1-methyl-1H-pyrrolo[3,2-c]pyridin-3-yl)methanone]
78.9	C[C@H]1c2nn(C)c(-c3cc(F)c(F)c(F)c3)c2CCN1C(=O)c1cn(C)c2cnccc12 [Example 221, (S)-(2,7-Dimethyl-3-(3,4,5-trifluorophenyl)-2,4,5,7-tetrahydro-6H-pyrazolo[3,4-c]pyridin-6-yl)(1-methyl-1H-pyrrolo[2,3-c]pyridin-3-yl)methanone]
64.7	C[C@H]1c2nn(C)c(-c3cc(F)c(F)c(F)c3)c2CCN1C(=O)c1cc2cccnc2n1C [Example 222, (S)-(2,7-Dimethyl-3-(3,4,5-trifluorophenyl)-2,4,5,7-tetrahydro-6H-pyrazolo[3,4-c]pyridin-6-yl)(1-methyl-1H-pyrrolo[2,3-b]pyridin-2-yl)methanone]
87.6	C[C@H]1c2nn(C)c(-c3cc(F)c(F)c(F)c3)c2CCN1C(=O)c1cn(C)c2ncccc12 [Example 223, (S)-(2,7-Dimethyl-3-(3,4,5-trifluorophenyl)-2,4,5,7-tetrahydro-6H-pyrazolo[3,4-c]pyridin-6-yl)(1-methyl-1H-pyrrolo[2,3-b]pyridin-3-yl)methanone]
0.64	C[C@H]1c2nn(C)c(-c3cc(F)c(F)c(F)c3)c2CCN1C(=O)c1ccnc2c1ccn2C [Example 225, (S)-(2,7-Dimethyl-3-(3,4,5-trifluorophenyl)-2,4,5,7-tetrahydro-6H-pyrazolo[3,4-c]pyridin-6-yl)(1-methyl-1H-pyrrolo[2,3-b]pyridin-4-yl)methanone]
9.51	C[C@H]1c2nn(C)c(-c3cc(F)c(F)c(F)c3)c2CCN1C(=O)c1cccn2nccc12 [Example 227, (S)-(2,7-Dimethyl-3-(3,4,5-trifluorophenyl)-2,4,5,7-tetrahydro-6H-pyrazolo[3,4-c]pyridin-6-yl)(pyrazolo[1,5-a]pyridin-4-yl)methanone]
5.57	C[C@H]1c2nn(C(F)F)c(-c3cc(F)c(F)c(F)c3)c2CCN1C(=O)c1ccc2ncccc2c1 [Example 232, (S)-(2-(Difluoromethyl)-7-methyl-3-(3,4,5-trifluorophenyl)-2,4,5,7-tetrahydro-6H-pyrazolo[3,4-c]pyridin-6-yl)(quinolin-6-yl)methanone]
550	C[C@@H]1c2nn(C(F)F)c(-c3cc(F)c(F)c(F)c3)c2CCN1C(=O)c1ccc2ncccc2c1 [Example 233, (R)-(2-(Difluoromethyl)-7-methyl-3-(3,4,5-trifluorophenyl)-2,4,5,7-tetrahydro-6H-pyrazolo[3,4-c]pyridin-6-yl)(quinolin-6-yl)methanone]
5.79	C[C@H]1c2nn(C)c(-c3cc(F)c(F)c(F)c3)c2CCN1C(=O)c1cccc2cccnc12 [Example 236, (S)-(2,7-Dimethyl-3-(3,4,5-trifluorophenyl)-2,4,5,7-tetrahydro-6H-pyrazolo[3,4-c]pyridin-6-yl)(quinolin-8-yl)methanone]
1.89	C[C@H]1c2nn(C)c(-c3cc(F)c(F)c(F)c3)c2CCN1C(=O)c1nccc2ccccc12 [Example 237, (S)-(2,7-Dimethyl-3-(3,4,5-trifluorophenyl)-2,4,5,7-tetrahydro-6H-pyrazolo[3,4-c]pyridin-6-yl)(isoquinolin-1-yl)methanone]
2.69	C[C@H]1c2nn(C)c(-c3cc(F)c(F)c(F)c3)c2CCN1C(=O)c1ccnc2c(F)cccc12 [Example 238, (S)-(2,7-Dimethyl-3-(3,4,5-trifluorophenyl)-2,4,5,7-tetrahydro-6H-pyrazolo[3,4-c]pyridin-6-yl)(8-fluoroquinolin-4-yl)methanone]
3.74	Cc1cc(C(=O)N2CCc3c(nn(C)c3-c3cc(F)c(F)c(F)c3)[C@@H]2C)c2ccccc2n1 [Example 239, (S)-(2,7-Dimethyl-3-(3,4,5-trifluorophenyl)-2,4,5,7-tetrahydro-6H-pyrazolo[3,4-c]pyridin-6-yl)(2-methylquinolin-4-yl)methanone]
14.1	C[C@H]1c2nn(C)c(-c3cc(F)c(F)c(F)c3)c2CCN1C(=O)c1ccc2ncccc2n1 [Example 244, (S)-(2,7-Dimethyl-3-(3,4,5-trifluorophenyl)-2,4,5,7-tetrahydro-6H-pyrazolo[3,4-c]pyridin-6-yl)(1,5-naphthyridin-2-yl)methanone]

From US11820766B2, “Monoacylglycerol lipase modulators” (Janssen Pharmaceutica NV, priority 2018, dated 2023)
